In PubChem BioAssay (NCI):
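GI50: concentration for 50% inhibition of growth. TGI: total growth inhibition.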

Key:
Experiment in all cases: NCI anticancer screen, dose series, 384-well format
UO-31 renal = tested on: UO-31 renal
OVCAR-5 ovarian = tested on: OVCAR-5 ovarian
UACC-257 melanoma = tested on: UACC-257 melanoma
CCRF-CEM leukemia = tested on: CCRF-CEM leukemia
SR leukemia = tested on: SR leukemia
SNB-19 CNS = tested on: SNB-19 CNS
DU-145 prostate = tested on: DU-145 prostate
HOP-92 NSCLC = tested on: HOP-92 NSCLC
T-47D breast = tested on: T-47D breast
IGROV1 ovarian = tested on: IGROV1 ovarian
HT29 colon = tested on: HT29 colon
A498 renal = tested on: A498 renal
MOLT-4 leukemia = tested on: MOLT-4 leukemia
NCI-H522 lung = tested on: NCI-H522 lung
KM12 colon = tested on: KM12 colon
SF-295 CNS = tested on: SF-295 CNS
SK-MEL-28 melanoma = tested on: SK-MEL-28 melanoma
OVCAR-3 ovarian = tested on: OVCAR-3 ovarian
MDA-MB-468 breast = tested on: MDA-MB-468 breast
MCF7 breast = tested on: MCF7 breast
LOX IMVI melanoma = tested on: LOX IMVI melanoma
U251 glioblastoma = tested on: U251 glioblastoma
SNB-75 CNS = tested on: SNB-75 CNS
HCT-15 colon = tested on: HCT-15 colon
OVCAR-8 ovarian = tested on: OVCAR-8 ovarian
RPMI-8226 leukemia = tested on: RPMI-8226 leukemia
HS 578T breast = tested on: HS 578T breast
K-562 leukemia = tested on: K-562 leukemia
SF-539 CNS = tested on: SF-539 CNS
SN12C renal = tested on: SN12C renal
SK-MEL-2 melanoma = tested on: SK-MEL-2 melanoma
SK-OV-3 ovarian = tested on: SK-OV-3 ovarian
A549 NSCLC = tested on: A549 NSCLC
HOP-62 NSCLC = tested on: HOP-62 NSCLC
HCT-116 colon = tested on: HCT-116 colon
PC-3 prostate = tested on: PC-3 prostate
TK-10 renal = tested on: TK-10 renal
M14 melanoma = tested on: M14 melanoma
786-0 renal = tested on: 786-0 renal
MALME-3M melanoma = tested on: MALME-3M melanoma
MDA-MB-435 melanoma = tested on: MDA-MB-435 melanoma
OVCAR-4 ovarian = tested on: OVCAR-4 ovarian
NCI-H460 NSCLC = tested on: NCI-H460 NSCLC
MDA-MB-231 breast = tested on: MDA-MB-231 breast
BT-549 breast = tested on: BT-549 breast
UACC-62 melanoma = tested on: UACC-62 melanoma
CAKI-1 renal = tested on: CAKI-1 renal
SF-268 CNS = tested on: SF-268 CNS
ACHN renal = tested on: ACHN renal
NCI-H322M lung = tested on: NCI-H322M lung
COLO 205 colon = tested on: COLO 205 colon
RXF 393 renal = tested on: RXF 393 renal
EKVX NSCLC = tested on: EKVX NSCLC
SW-620 colon = tested on: SW-620 colon
NCI-H226 lung = tested on: NCI-H226 lung
HL-60(TB) leukemia = tested on: HL-60(TB) leukemia

Q: With `CC1(C)CCC(CN2CCN(c3ccc(C(=O)NS(=O)(=O)c4ccc(NCC5CCOCC5)c([N+](=O)[O-])c4)c(Oc4cnc5[nH]ccc5c4)c3)CC2)=C(c2ccc(Cl)cc2)C1` as the compound, how does the GI50 (UO-31 renal) read?
A: 3.63 µM

Q: What about the TGI (UO-31 renal) of the same compound?
A: 8 µM

Q: What about the GI50 (OVCAR-5 ovarian) of the same compound?
A: 3.53 µM

Q: And the TGI (OVCAR-5 ovarian)?
A: 6.62 µM

Q: And the GI50 (UACC-257 melanoma)?
A: 5.19 µM

Q: And the TGI (UACC-257 melanoma)?
A: 7 µM

Q: And the GI50 (CCRF-CEM leukemia)?
A: 7.94 µM

Q: And the GI50 (SR leukemia)?
A: 1.38 µM

Q: What about the TGI (SR leukemia) of the same compound?
A: 2.68 µM

Q: And the GI50 (SNB-19 CNS)?
A: 5.63 µM

Q: And the TGI (SNB-19 CNS)?
A: 11 µM

Q: And the GI50 (DU-145 prostate)?
A: 5.66 µM

Q: And the TGI (DU-145 prostate)?
A: 18.5 µM

Q: What about the GI50 (HOP-92 NSCLC) of the same compound?
A: 1.83 µM

Q: What about the TGI (HOP-92 NSCLC) of the same compound?
A: 3.73 µM

Q: And the GI50 (T-47D breast)?
A: 5.12 µM

Q: What about the TGI (T-47D breast) of the same compound?
A: 8.12 µM

Q: And the GI50 (IGROV1 ovarian)?
A: 2.81 µM

Q: What about the TGI (IGROV1 ovarian) of the same compound?
A: 7.24 µM

Q: What about the GI50 (HT29 colon) of the same compound?
A: 5.16 µM

Q: What about the TGI (HT29 colon) of the same compound?
A: 7.3 µM

Q: What about the GI50 (A498 renal) of the same compound?
A: 3.64 µM

Q: What about the TGI (A498 renal) of the same compound?
A: 8.99 µM

Q: And the GI50 (MOLT-4 leukemia)?
A: 1.26 µM

Q: What about the TGI (MOLT-4 leukemia) of the same compound?
A: 2.62 µM

Q: And the GI50 (NCI-H522 lung)?
A: 14.9 µM

Q: What about the TGI (NCI-H522 lung) of the same compound?
A: 20.2 µM

Q: And the GI50 (KM12 colon)?
A: 5.75 µM

Q: And the TGI (KM12 colon)?
A: 8.84 µM

Q: And the GI50 (SF-295 CNS)?
A: 3.98 µM

Q: What about the TGI (SF-295 CNS) of the same compound?
A: 7.88 µM

Q: What about the GI50 (SK-MEL-28 melanoma) of the same compound?
A: 4.05 µM

Q: And the TGI (SK-MEL-28 melanoma)?
A: 9.58 µM

Q: What about the GI50 (OVCAR-3 ovarian) of the same compound?
A: 4.55 µM

Q: What about the TGI (OVCAR-3 ovarian) of the same compound?
A: 7.36 µM

Q: What about the GI50 (MDA-MB-468 breast) of the same compound?
A: 3.67 µM

Q: And the TGI (MDA-MB-468 breast)?
A: 7.05 µM

Q: And the GI50 (MCF7 breast)?
A: 4.38 µM

Q: What about the TGI (MCF7 breast) of the same compound?
A: 8.24 µM

Q: What about the GI50 (LOX IMVI melanoma) of the same compound?
A: 9.62 µM

Q: What about the GI50 (U251 glioblastoma) of the same compound?
A: 5.89 µM

Q: And the TGI (U251 glioblastoma)?
A: 9.82 µM

Q: What about the GI50 (SNB-75 CNS) of the same compound?
A: 4.58 µM

Q: And the TGI (SNB-75 CNS)?
A: 9.27 µM

Q: What about the GI50 (HCT-15 colon) of the same compound?
A: 5.11 µM

Q: What about the TGI (HCT-15 colon) of the same compound?
A: 9.19 µM

Q: And the GI50 (OVCAR-8 ovarian)?
A: 4.44 µM

Q: And the TGI (OVCAR-8 ovarian)?
A: 7.43 µM

Q: And the GI50 (RPMI-8226 leukemia)?
A: 1.75 µM

Q: What about the TGI (RPMI-8226 leukemia) of the same compound?
A: 3.99 µM

Q: What about the GI50 (HS 578T breast) of the same compound?
A: 3.14 µM

Q: And the TGI (HS 578T breast)?
A: 7.93 µM

Q: And the GI50 (K-562 leukemia)?
A: 2.13 µM

Q: And the TGI (K-562 leukemia)?
A: 4.28 µM

Q: And the GI50 (SF-539 CNS)?
A: 3.6 µM

Q: And the TGI (SF-539 CNS)?
A: 7.94 µM

Q: And the GI50 (SN12C renal)?
A: 4.52 µM

Q: What about the TGI (SN12C renal) of the same compound?
A: 14.9 µM

Q: And the GI50 (SK-MEL-2 melanoma)?
A: 1.93 µM

Q: What about the TGI (SK-MEL-2 melanoma) of the same compound?
A: 3.43 µM

Q: What about the GI50 (SK-OV-3 ovarian) of the same compound?
A: 15.5 µM

Q: What about the TGI (SK-OV-3 ovarian) of the same compound?
A: 21.1 µM

Q: What about the GI50 (A549 NSCLC) of the same compound?
A: 4.97 µM

Q: And the TGI (A549 NSCLC)?
A: 11.2 µM

Q: What about the GI50 (HOP-62 NSCLC) of the same compound?
A: 6.2 µM

Q: What about the TGI (HOP-62 NSCLC) of the same compound?
A: 9.88 µM

Q: What about the GI50 (HCT-116 colon) of the same compound?
A: 4.46 µM

Q: And the TGI (HCT-116 colon)?
A: 11.8 µM

Q: And the GI50 (PC-3 prostate)?
A: 4.61 µM

Q: And the TGI (PC-3 prostate)?
A: 12.2 µM

Q: What about the GI50 (TK-10 renal) of the same compound?
A: 6.84 µM

Q: What about the TGI (TK-10 renal) of the same compound?
A: 12.4 µM

Q: What about the GI50 (M14 melanoma) of the same compound?
A: 3.51 µM

Q: And the TGI (M14 melanoma)?
A: 9.14 µM

Q: And the GI50 ([…]-0 renal)?
A: 3.15 µM

Q: What about the TGI (786-0 renal) of the same compound?
A: 9.12 µM

Q: What about the GI50 (MALME-3M melanoma) of the same compound?
A: 2.81 µM

Q: And the TGI (MALME-3M melanoma)?
A: 6.5 µM

Q: And the GI50 (MDA-MB-435 melanoma)?
A: 3.43 µM

Q: And the TGI (MDA-MB-435 melanoma)?
A: 16.6 µM

Q: What about the GI50 (OVCAR-4 ovarian) of the same compound?
A: 2.98 µM

Q: And the TGI (OVCAR-4 ovarian)?
A: 6.29 µM

Q: What about the GI50 (NCI-H460 NSCLC) of the same compound?
A: 4.46 µM

Q: And the TGI (NCI-H460 NSCLC)?
A: 7.85 µM

Q: What about the GI50 (MDA-MB-231 breast) of the same compound?
A: 2.49 µM

Q: What about the TGI (MDA-MB-231 breast) of the same compound?
A: 6.01 µM

Q: What about the GI50 (BT-549 breast) of the same compound?
A: 3.79 µM

Q: What about the TGI (BT-549 breast) of the same compound?
A: 9.18 µM

Q: And the GI50 (UACC-62 melanoma)?
A: 4.95 µM

Q: And the TGI (UACC-62 melanoma)?
A: 7.13 µM

Q: What about the GI50 (CAKI-1 renal) of the same compound?
A: 5.47 µM

Q: What about the TGI (CAKI-1 renal) of the same compound?
A: 11.7 µM

Q: What about the GI50 (SF-268 CNS) of the same compound?
A: 3.84 µM

Q: What about the TGI (SF-268 CNS) of the same compound?
A: 8.19 µM

Q: And the GI50 (ACHN renal)?
A: 4.22 µM

Q: And the TGI (ACHN renal)?
A: 11.6 µM

Q: What about the GI50 (NCI-H322M lung) of the same compound?
A: 4.57 µM

Q: What about the TGI (NCI-H322M lung) of the same compound?
A: 11.5 µM

Q: What about the GI50 (COLO 205 colon) of the same compound?
A: 3.81 µM

Q: What about the TGI (COLO 205 colon) of the same compound?
A: 6.68 µM

Q: And the GI50 (RXF 393 renal)?
A: 3.41 µM

Q: What about the TGI (RXF 393 renal) of the same compound?
A: 5.69 µM

Q: And the GI50 (EKVX NSCLC)?
A: 6.98 µM

Q: What about the TGI (EKVX NSCLC) of the same compound?
A: 14.3 µM

Q: And the GI50 (SW-620 colon)?
A: 6.09 µM

Q: And the TGI (SW-620 colon)?
A: 7.57 µM

Q: And the GI50 (NCI-H226 lung)?
A: 7.08 µM

Q: What about the TGI (NCI-H226 lung) of the same compound?
A: 10.6 µM

Q: And the GI50 (HL-60(TB) leukemia)?
A: 0.105 µM

Q: And the TGI (HL-60(TB) leukemia)?
A: 0.802 µM
